PubChem BioAssay (NCI)
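All cell lines were grown in 96-well plates and treated with compound for 48 hours. Abbreviation: GI50, concentration required for 50% inhibition of growth. At the TGI there is no net growth.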

How the values were obtained:
Assay in all cases: NCI anticancer screen, dose series, 48 h
HT29 colon = tested on: HT29 colon
A498 renal = tested on: A498 renal
SNB-19 CNS = tested on: SNB-19 CNS
LOX IMVI melanoma = tested on: LOX IMVI melanoma
SW-620 colon = tested on: SW-620 colon
UACC-257 melanoma = tested on: UACC-257 melanoma
CCRF-CEM leukemia = tested on: CCRF-CEM leukemia
HCT-116 colon = tested on: HCT-116 colon
SN12C renal = tested on: SN12C renal
SK-MEL-2 melanoma = tested on: SK-MEL-2 melanoma
MDA-MB-231 breast = tested on: MDA-MB-231 breast
SF-295 CNS = tested on: SF-295 CNS
U251 CNS = tested on: U251 CNS
SK-OV-3 ovarian = tested on: SK-OV-3 ovarian
786-0 renal = tested on: 786-0 renal
MOLT-4 leukemia = tested on: MOLT-4 leukemia
NCI-H522 lung = tested on: NCI-H522 lung
NCI-H23 lung = tested on: NCI-H23 lung
NCI-H226 lung = tested on: NCI-H226 lung
OVCAR-5 ovarian = tested on: OVCAR-5 ovarian
M14 melanoma = tested on: M14 melanoma
IGROV1 ovarian = tested on: IGROV1 ovarian
OVCAR-4 ovarian = tested on: OVCAR-4 ovarian
PC-3 prostate = tested on: PC-3 prostate
KM12 colon = tested on: KM12 colon
SF-539 CNS = tested on: SF-539 CNS
SK-MEL-5 melanoma = tested on: SK-MEL-5 melanoma
HCT-15 colon = tested on: HCT-15 colon
CAKI-1 renal = tested on: CAKI-1 renal
SNB-75 CNS = tested on: SNB-75 CNS
DU-145 prostate = tested on: DU-145 prostate
SK-MEL-28 melanoma = tested on: SK-MEL-28 melanoma
A549 NSCLC = tested on: A549 NSCLC
UO-31 renal = tested on: UO-31 renal
NCI/ADR-RES ovarian = tested on: NCI/ADR-RES ovarian
K-562 leukemia = tested on: K-562 leukemia
HOP-62 NSCLC = tested on: HOP-62 NSCLC
OVCAR-8 ovarian = tested on: OVCAR-8 ovarian
SF-268 CNS = tested on: SF-268 CNS
COLO 205 colon = tested on: COLO 205 colon
NCI-H460 lung = tested on: NCI-H460 lung
HS 578T breast = tested on: HS 578T breast
MDA-MB-435 = tested on: MDA-MB-435
RPMI-8226 leukemia = tested on: RPMI-8226 leukemia
OVCAR-3 ovarian = tested on: OVCAR-3 ovarian
T-47D breast = tested on: T-47D breast
BT-549 breast = tested on: BT-549 breast
MCF7 breast = tested on: MCF7 breast
SR leukemia = tested on: SR leukemia
ACHN renal = tested on: ACHN renal
HL-60(TB) leukemia = tested on: HL-60(TB) leukemia

O=C(NNC(=S)Nc1ccccc1)c1ccccn1
GI50 (HT29 colon): 4.17 µM | TGI (HT29 colon): > 100 µM | GI50 (A498 renal): 4.55 µM | TGI (A498 renal): > 100 µM | GI50 (SNB-19 CNS): 2.95 µM | TGI (SNB-19 CNS): > 100 µM | GI50 (LOX IMVI melanoma): 2.31 µM | TGI (LOX IMVI melanoma): > 100 µM | GI50 (SW-620 colon): 4.54 µM | TGI (SW-620 colon): > 100 µM | GI50 (UACC-257 melanoma): 2.53 µM | TGI (UACC-257 melanoma): 21.2 µM | GI50 (CCRF-CEM leukemia): 2.18 µM | TGI (CCRF-CEM leukemia): 25.3 µM | GI50 (HCT-116 colon): 3.02 µM | TGI (HCT-116 colon): > 100 µM | GI50 (SN12C renal): 2.99 µM | TGI (SN12C renal): > 100 µM | GI50 (SK-MEL-2 melanoma): 9.74 µM | TGI (SK-MEL-2 melanoma): > 100 µM | GI50 (MDA-MB-231 breast): 3.85 µM | TGI (MDA-MB-231 breast): > 100 µM | GI50 (SF-295 CNS): 1.97 µM | TGI (SF-295 CNS): > 100 µM | GI50 (U251 CNS): 1.49 µM | TGI (U251 CNS): > 100 µM | GI50 (SK-OV-3 ovarian): 7.33 µM | TGI (SK-OV-3 ovarian): > 100 µM | GI50 (786-0 renal): 2.81 µM | TGI (786-0 renal): > 100 µM | GI50 (MOLT-4 leukemia): 2.84 µM | TGI (MOLT-4 leukemia): > 100 µM | GI50 (NCI-H522 lung): 5.99 µM | TGI (NCI-H522 lung): > 100 µM | GI50 (NCI-H23 lung): 6.95 µM | TGI (NCI-H23 lung): > 100 µM | GI50 (NCI-H226 lung): 3.3 µM | TGI (NCI-H226 lung): > 100 µM | GI50 (OVCAR-5 ovarian): > 100 µM | TGI (OVCAR-5 ovarian): > 100 µM | GI50 (M14 melanoma): 2.1 µM | TGI (M14 melanoma): 12.3 µM | GI50 (IGROV1 ovarian): 3 µM | TGI (IGROV1 ovarian): > 100 µM | GI50 (OVCAR-4 ovarian): 1.46 µM | TGI (OVCAR-4 ovarian): > 100 µM | GI50 (PC-3 prostate): 2.87 µM | TGI (PC-3 prostate): > 100 µM | GI50 (KM12 colon): 3.9 µM | TGI (KM12 colon): > 100 µM | GI50 (SF-539 CNS): 2.43 µM | TGI (SF-539 CNS): 20.8 µM | GI50 (SK-MEL-5 melanoma): 2.11 µM | TGI (SK-MEL-5 melanoma): > 100 µM | GI50 (HCT-15 colon): 1.13 µM | TGI (HCT-15 colon): > 100 µM | GI50 (CAKI-1 renal): 1.37 µM | TGI (CAKI-1 renal): > 100 µM | GI50 (SNB-75 CNS): 5.97 µM | TGI (SNB-75 CNS): > 100 µM | GI50 (DU-145 prostate): 3.8 µM | TGI (DU-145 prostate): > 100 µM | GI50 (SK-MEL-28 melanoma): 2.8 µM | TGI (SK-MEL-28 melanoma): > 100 µM | GI50 (A549 NSCLC): 1.56 µM | TGI (A549 NSCLC): 47.7 µM | GI50 (UO-31 renal): 0.95 µM | TGI (UO-31 renal): 16.9 µM | GI50 (NCI/ADR-RES ovarian): 2.84 µM | TGI (NCI/ADR-RES ovarian): > 100 µM | GI50 (K-562 leukemia): 3.95 µM | TGI (K-562 leukemia): > 100 µM | GI50 (HOP-62 NSCLC): 5.52 µM | TGI (HOP-62 NSCLC): > 100 µM | GI50 (OVCAR-8 ovarian): 2.69 µM | TGI (OVCAR-8 ovarian): > 100 µM | GI50 (SF-268 CNS): 2.66 µM | TGI (SF-268 CNS): > 100 µM | GI50 (COLO 205 colon): 4.05 µM | TGI (COLO 205 colon): > 100 µM | GI50 (NCI-H460 lung): 1.06 µM | TGI (NCI-H460 lung): > 100 µM | GI50 (HS 578T breast): 23.7 µM | TGI (HS 578T breast): > 100 µM | GI50 (MDA-MB-435): 4.29 µM | TGI (MDA-MB-435): > 100 µM | GI50 (RPMI-8226 leukemia): 2.69 µM | TGI (RPMI-8226 leukemia): 38.4 µM | GI50 (OVCAR-3 ovarian): 6.83 µM | TGI (OVCAR-3 ovarian): > 100 µM | GI50 (T-47D breast): 6.55 µM | TGI (T-47D breast): > 100 µM | GI50 (BT-549 breast): 7.41 µM | TGI (BT-549 breast): > 100 µM | GI50 (MCF7 breast): 3.14 µM | TGI (MCF7 breast): > 100 µM | GI50 (SR leukemia): 1.63 µM | TGI (SR leukemia): > 100 µM | GI50 (ACHN renal): 1.22 µM | TGI (ACHN renal): > 100 µM | GI50 (HL-60(TB) leukemia): 2.58 µM | TGI (HL-60(TB) leukemia): 7.85 µM
